This note sets out measurements from patent publication US20150359884A1, “MULTI-PHOTON ISOMERISATION OF COMBRETASTATINS AND THEIR USE IN THERAPY” (priority 2011, published 2015).

Series [1] in a line: Two-photon absorption cross section using reference fluorophore 9-chloroanthracene. The format is physicochemical. As to conditions: at 620 nm, DCM. The source says:
Cell images were overlaid using Adobe Photoshop CS3.
Published cross sections for two photon absorption (σ2, the probability of an absorption process or photon interaction) typically show large variations depending on the method of measurement, using either the Z-scan method or a reference fluorophore, and the power range and pulse duration of the laser used for excitation. We have attempted to determine values of σ2 for E-CA4 and E-ACA4 using a reference fluorophore. 9-Chloroanthracene (9CIA) was selected as a standard fluorophore with an appropriate fluorescence spectrum and for which 2PE cross-sections are available. The values of σ2 at 620 nm for E-CA4 and E-CA4F in DCM were determined to be 2.1±0.5 and 2.75±0.6 GM units respectively. […] Values of σ2 at 620 nm for E-ACA and E-DMAC were both 5.7±1.2. These larger values may be consistent with some charge transfer character of the excitation of these compounds.

The nature of series [2]: Fluorescence quantum yields in solvents, UV one-photon excitation. The format is physicochemical. Conditions: 20° C., 290-300 nm excitation. The procedure: Absorption spectra were measured in either a Perkin Elmer Lambda 25 or 950 spectrophotometer. Fluorescence measurements were made with either a Spex Fluoromax or Varian Cary Eclipse spectrofluorimeter using the spectral correction curves supplied by the manufacturers. Fluorescence quantum yields with UV (one-photon) excitation were determined using either 2-aminopyridine (Φref 0.6 [7]) or 9-chloroanthracene (Φref 0.50 in dichloromethane, determined here relative to 9,10-diphenylanthracene in cyclohexane (Φref 0.97) and anthracene in ethanol (Φref 0.28 [8]) as standards. Fluorescence quantum yields were determined from the relative slopes of plots of integrated fluorescence intensity versus (1-10^−A) for samples having absorbance A≦0.1. The square of the refractive index (n^2) correction was applied when sample and reference compounds were in different solvents. Irradiation of the samples was minimized by the use of narrow excitation slits to reduce simultaneous photoisomerization.
The fluorescence quantum yields for E-CA4F were generally somewhat higher than for E-CA4.

As for `COc1ccc(/C=C/c2cc(OC)c(OC)c(OC)c2)cc1O` [E-CA4, (E)-1-(3′,4′,5′-Trimethoxyphenyl)-2-(4″-methoxy-3″-hydroxy-phenyl)ethene], the “Two photon absorption cross section σ2” value in series [1] is recorded as 2.1±0.5 GM units. The “Fluorescence quantum yield φ” value came to 0.19 in series [2] (DCM); 0.15 in series [2] (DMSO); 0.093 in series [2] (EtOH); 0.19 in series [2] (Ethylene glycol); 0.35 in series [2] (Glycerol); 0.36 in series [2] (Hexane). The “Fluorescence quantum yield φ” value was found to be 0.099 in series [2] (MeCN) and 0.071 in series [2] (MeOH).
